{"source": "PubChem BioAssay AID1259407", "about": "(Chemical Carcinogenesis Research Information System (CCRIS), 2018)", "test_system": "CCRIS mutagenicity, Ames/micronucleus/aberration tests", "assay": "CCRIS mutagenicity studies", "note": "Activity calls are given as the source filed them. No rule for the calls is given here."}
{"molecule": "CS(C)=O", "values": [{"measurement": "mutagenic call", "setting": "Test System: AMES SALMONELLA TYPHIMURIUM, Strain/Indicator: TA1535, Metabolic Activation: RAT, LIVER, S-9, AROCLOR 1254 (10 OR 30%), Method: PREINCUBATION", "result": "inactive; negative"}, {"measurement": "mutagenic call", "setting": "Test System: AMES SALMONELLA TYPHIMURIUM, Strain/Indicator: TA1535, Metabolic Activation: RAT, LIVER, S-9, PHENOBARBITAL AND 5,6-BENZOFLAVONE, Method: PREINCUBATION (20 MIN)", "result": "inactive; negative"}, {"measurement": "mutagenic call", "setting": "Test System: AMES SALMONELLA TYPHIMURIUM, Strain/Indicator: TA1537, Metabolic Activation: HAMSTER, LIVER, S-9, AROCLOR 1254 (30%), Method: PREINCUBATION", "result": "inactive; negative"}, {"measurement": "mutagenic call", "setting": "Test System: AMES SALMONELLA TYPHIMURIUM, Strain/Indicator: TA1537, Metabolic Activation: NONE, Method: FLUCTUATION (MICROTITER)", "result": "inactive; negative"}, {"measurement": "mutagenic call", "setting": "Test System: AMES SALMONELLA TYPHIMURIUM, Strain/Indicator: TA1537, Metabolic Activation: NONE, Method: PREINCUBATION", "result": "inactive; negative"}, {"measurement": "mutagenic call", "setting": "Test System: AMES SALMONELLA TYPHIMURIUM, Strain/Indicator: TA1537, Metabolic Activation: NONE, Method: PREINCUBATION (20 MIN)", "result": "active; positive"}, {"measurement": "mutagenic call", "setting": "Test System: AMES SALMONELLA TYPHIMURIUM, Strain/Indicator: TA1537, Metabolic Activation: NONE, Method: PREINCUBATION (20 OR 60 MIN)", "result": "active; positive"}, {"measurement": "mutagenic call", "setting": "Test System: AMES SALMONELLA TYPHIMURIUM, Strain/Indicator: TA1537, Metabolic Activation: NONE, Method: STANDARD PLATE", "result": "inactive; negative"}, {"measurement": "mutagenic call", "setting": "Test System: AMES SALMONELLA TYPHIMURIUM, Strain/Indicator: TA1537, Metabolic Activation: RAT LIVER S-9, AROCLOR 1254, Method: FLUCTUATION (MICROTITER)", "result": "inactive; negative"}, {"measurement": "mutagenic call", "setting": "Test System: AMES SALMONELLA TYPHIMURIUM, Strain/Indicator: TA1537, Metabolic Activation: RAT, LIVER, S-9, AROCLOR 1254 (30%), Method: PREINCUBATION", "result": "inactive; negative"}, {"measurement": "mutagenic call", "setting": "Test System: AMES SALMONELLA TYPHIMURIUM, Strain/Indicator: TA1537, Metabolic Activation: RAT, LIVER, S-9, PHENOBARBITAL AND 5,6-BENZOFLAVONE, Method: PREINCUBATION (20 MIN)", "result": "active; positive"}, {"measurement": "mutagenic call", "setting": "Test System: AMES SALMONELLA TYPHIMURIUM, Strain/Indicator: TA1538, Metabolic Activation: NONE, Method: PREINCUBATION (20 MIN)", "result": "inactive; negative"}, {"measurement": "mutagenic call", "setting": "Test System: AMES SALMONELLA TYPHIMURIUM, Strain/Indicator: TA1538, Metabolic Activation: RAT, LIVER, S-9, PHENOBARBITAL AND 5,6-BENZOFLAVONE, Method: PREINCUBATION (20 MIN)", "result": "inactive; negative"}, {"measurement": "mutagenic call", "setting": "Test System: AMES SALMONELLA TYPHIMURIUM, Strain/Indicator: TA2637, Metabolic Activation: NONE, Method: PREINCUBATION (20 MIN)", "result": "active; positive"}, {"measurement": "mutagenic call", "setting": "Test System: AMES SALMONELLA TYPHIMURIUM, Strain/Indicator: TA2637, Metabolic Activation: RAT, LIVER, S-9, PHENOBARBITAL AND 5,6-BENZOFLAVONE, Method: PREINCUBATION (20 MIN)", "result": "active; positive"}, {"measurement": "mutagenic call", "setting": "Test System: AMES SALMONELLA TYPHIMURIUM, Strain/Indicator: TA7001, Metabolic Activation: NONE, Method: FLUCTUATION (MICROTITER)", "result": "inactive; negative"}, {"measurement": "mutagenic call", "setting": "Test System: AMES SALMONELLA TYPHIMURIUM, Strain/Indicator: TA7001, Metabolic Activation: RAT LIVER S-9, AROCLOR 1254, Method: FLUCTUATION (MICROTITER)", "result": "inactive; negative"}, {"measurement": "mutagenic call", "setting": "Test System: AMES SALMONELLA TYPHIMURIUM, Strain/Indicator: TA7002, Metabolic Activation: NONE, Method: FLUCTUATION (MICROTITER)", "result": "inactive; negative"}, {"measurement": "mutagenic call", "setting": "Test System: AMES SALMONELLA TYPHIMURIUM, Strain/Indicator: TA7002, Metabolic Activation: RAT LIVER S-9, AROCLOR 1254, Method: FLUCTUATION (MICROTITER)", "result": "inactive; negative"}, {"measurement": "mutagenic call", "setting": "Test System: AMES SALMONELLA TYPHIMURIUM, Strain/Indicator: TA7003, Metabolic Activation: NONE, Method: FLUCTUATION (MICROTITER)", "result": "inactive; negative"}, {"measurement": "mutagenic call", "setting": "Test System: AMES SALMONELLA TYPHIMURIUM, Strain/Indicator: TA7003, Metabolic Activation: RAT LIVER S-9, AROCLOR 1254, Method: FLUCTUATION (MICROTITER)", "result": "inactive; negative"}, {"measurement": "mutagenic call", "setting": "Test System: AMES SALMONELLA TYPHIMURIUM, Strain/Indicator: TA7004, Metabolic Activation: NONE, Method: FLUCTUATION (MICROTITER)", "result": "inactive; negative"}, {"measurement": "mutagenic call", "setting": "Test System: AMES SALMONELLA TYPHIMURIUM, Strain/Indicator: TA7004, Metabolic Activation: RAT LIVER S-9, AROCLOR 1254, Method: FLUCTUATION (MICROTITER)", "result": "inactive; negative"}, {"measurement": "mutagenic call", "setting": "Test System: AMES SALMONELLA TYPHIMURIUM, Strain/Indicator: TA7005, Metabolic Activation: NONE, Method: FLUCTUATION (MICROTITER)", "result": "inactive; negative"}, {"measurement": "mutagenic call", "setting": "Test System: AMES SALMONELLA TYPHIMURIUM, Strain/Indicator: TA7005, Metabolic Activation: RAT LIVER S-9, AROCLOR 1254, Method: FLUCTUATION (MICROTITER)", "result": "inactive; negative"}, {"measurement": "mutagenic call", "setting": "Test System: AMES SALMONELLA TYPHIMURIUM, Strain/Indicator: TA7006, Metabolic Activation: NONE, Method: FLUCTUATION (MICROTITER)", "result": "inactive; negative"}, {"measurement": "mutagenic call", "setting": "Test System: AMES SALMONELLA TYPHIMURIUM, Strain/Indicator: TA7006, Metabolic Activation: RAT LIVER S-9, AROCLOR 1254, Method: FLUCTUATION (MICROTITER)", "result": "inactive; negative"}, {"measurement": "mutagenic call", "setting": "Test System: E. COLI, Strain/Indicator: WP2, Metabolic Activation: NONE, Method: PREINCUBATION (20 OR 60 MIN)", "result": "inactive; negative"}, {"measurement": "mutagenic call", "setting": "Test System: E. COLI, Strain/Indicator: WP2, Metabolic Activation: NONE, Method: STANDARD PLATE", "result": "inactive; negative"}, {"measurement": "mutagenic call", "setting": "Test System: E. COLI, Strain/Indicator: WP2 UVRA, Metabolic Activation: NONE, Method: PREINCUBATION (20 MIN)", "result": "active; positive"}, {"measurement": "mutagenic call", "setting": "Test System: E. COLI, Strain/Indicator: WP2 UVRA, Metabolic Activation: NONE, Method: PREINCUBATION (60 MIN)", "result": "inactive; negative"}, {"measurement": "mutagenic call", "setting": "Test System: E. COLI, Strain/Indicator: WP2 UVRA, Metabolic Activation: NONE, Method: STANDARD PLATE", "result": "active; positive"}, {"measurement": "mutagenic call", "setting": "Test System: MOUSE LYMPHOMA, Strain/Indicator: L5178Y (TK+/TK-), Metabolic Activation: NONE, Method: SUSPENSION/PLATE", "result": "active; positive"}]}
